Test results: the NIST ThermoML archive (doi:10.1016/j.fluid.2004.12.004)
± gives the expanded uncertainty stated by the source.

Conditions: 298.15 K; 101.33 kPa; Liquid; Vibrating tube method

Structure (SMILES)	mass density
CCCCO [butan-1-ol]	805.8 ± 0.2 kg/m3
COC(=O)c1ccccc1C(=O)OC [dimethyl 1,2-benzenedicarboxylate]	1186.9 ± 0.2 kg/m3
CN(C)C=O [dimethylformamide]	943.81 ± 0.2 kg/m3
CCOC(C)=O [ethyl acetate]	894.4 ± 0.6 kg/m3
CC1CCCCC1 [methylcyclohexane]	764.96 ± 0.13 kg/m3
CC(=O)Oc1ccccc1 [phenyl ethanoate]	1073.3 ± 0.42 kg/m3
